The values that follow are results of earlier work, collected in US6849628B2, “Optically active compounds” (The University of Strathclyde, priority 1986, dated 2005).

For data set [1], the target named is T1, thymidylate synthase from L. casei (Lacticaseibacillus casei, UniProt P00469).
T1 sequence (P00469 1-316): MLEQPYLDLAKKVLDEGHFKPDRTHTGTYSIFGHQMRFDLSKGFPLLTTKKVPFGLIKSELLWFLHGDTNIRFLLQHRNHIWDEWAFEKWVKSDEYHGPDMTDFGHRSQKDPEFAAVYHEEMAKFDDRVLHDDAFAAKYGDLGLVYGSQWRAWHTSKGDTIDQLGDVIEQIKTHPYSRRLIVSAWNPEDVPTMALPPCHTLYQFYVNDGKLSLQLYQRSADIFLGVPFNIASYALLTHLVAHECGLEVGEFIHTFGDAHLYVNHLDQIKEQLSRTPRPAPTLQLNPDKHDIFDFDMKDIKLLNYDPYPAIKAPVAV
The conditions noted are these: Leary et al 1973.

The target in data set [2] is 5,10-methylene tetrahydrofolate dehydrogenase from E. coli (Escherichia coli, UniProt P24186). The conditions noted are these: Scott and Donaldson 1964.
The target in data set [3] is T2, glycinamide ribonucleotide (GAR) formyl-transferase from chicken liver (Gallus gallus, UniProt P21872).
T2 construct: host or cells: chicken liver
T2 sequence (P21872 1-1003): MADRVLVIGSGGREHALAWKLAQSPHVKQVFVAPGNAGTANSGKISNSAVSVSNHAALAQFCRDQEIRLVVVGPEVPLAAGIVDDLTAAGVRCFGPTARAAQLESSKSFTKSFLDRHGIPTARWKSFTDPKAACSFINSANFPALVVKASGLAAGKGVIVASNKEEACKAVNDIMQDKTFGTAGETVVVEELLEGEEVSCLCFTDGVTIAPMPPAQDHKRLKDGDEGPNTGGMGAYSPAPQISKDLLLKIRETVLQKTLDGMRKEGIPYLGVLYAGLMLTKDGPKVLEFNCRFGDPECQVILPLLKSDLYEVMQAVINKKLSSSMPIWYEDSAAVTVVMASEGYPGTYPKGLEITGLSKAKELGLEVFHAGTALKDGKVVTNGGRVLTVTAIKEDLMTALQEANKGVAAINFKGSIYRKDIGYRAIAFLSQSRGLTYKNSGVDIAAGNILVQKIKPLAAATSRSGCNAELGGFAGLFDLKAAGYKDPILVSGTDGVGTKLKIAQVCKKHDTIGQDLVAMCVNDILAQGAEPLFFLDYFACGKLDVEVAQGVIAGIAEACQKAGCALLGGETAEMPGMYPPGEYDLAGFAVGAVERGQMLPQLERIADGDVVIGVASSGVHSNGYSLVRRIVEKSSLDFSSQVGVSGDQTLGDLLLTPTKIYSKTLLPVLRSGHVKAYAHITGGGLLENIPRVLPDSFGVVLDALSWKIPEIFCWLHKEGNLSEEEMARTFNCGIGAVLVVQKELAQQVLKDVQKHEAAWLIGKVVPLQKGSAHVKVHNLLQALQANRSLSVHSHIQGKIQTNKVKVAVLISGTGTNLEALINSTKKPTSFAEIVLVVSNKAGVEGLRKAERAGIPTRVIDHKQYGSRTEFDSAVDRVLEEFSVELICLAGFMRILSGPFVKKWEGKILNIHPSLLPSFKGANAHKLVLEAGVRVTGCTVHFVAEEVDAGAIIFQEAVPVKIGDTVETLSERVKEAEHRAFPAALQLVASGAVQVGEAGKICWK
The conditions noted are these: Smith, Benkovic and Benkovic 1981.

For a further data set, the system named is one-carbon metabolism. The conditions noted are these: Montgomery et al 1981; only the (6S) diastereoisomer is effective.

Turning to `Nc1nc2c(c(=O)[nH]1)N1CN(c3ccc(C(=O)N[C@@H](CCC(=O)O)C(=O)O)cc3)CC1CN2` (single isomer, unassigned) [non-natural diastereoisomer of 5,10-methylene tetrahydrofolate, 5,10-methylene tetrahydrofolate], the “inhibition of thymidylate synthase” value in data set [1] is “inhibited”. Besides, the “inhibition of 5,10-methylene tetrahydrofolate dehydrogenase” value in data set [2] was “inhibited”.

For the compound `Nc1nc2c(c(=O)[nH]1)NC(CN(C=O)c1ccc(C(=O)N[C@@H](CCC(=O)O)C(=O)O)cc1)CN2` (single isomer, unassigned) [non-natural diastereoisomer of 10-formyltetrahydrofolate, 10-formyltetrahydrofolate], in data set [3], the “inhibition of GAR formyl-transferase” value is given as “potent competitive inhibitor”.

Turning to “calcium 5-formyl-(6S) tetrahydrofolate [Ib]”, the “effectiveness in restoring one-carbon metabolism” value in the data set on one-carbon metabolism is reported as “effective in restoring one-carbon metabolism”.
